Measurements published in patent publication US8258145B2, “Method of treating brain cancer” (Myrexis, Inc., priority 2005, dated 2012).

Test system: T-47D
Experiment: Caspase cascade activation (caspase activity ratio and potency), fluorogenic N-(Ac-DEVD)-N'-ethoxycarbonyl-R110 substrate
Format: cell-based, Human
Settings: Homo sapiens, T47D; T-47D (24 hr)
Description: Human breast cancer cell lines T-47D and DLD-1 were grown according to media component mixtures designated by American Type Culture Collection+10% FCS (Invitrogen Corporation), in a 5% CO2−95% humidity incubator at 37° C. T-47D and DLD-1 cells were maintained at a cell density between 50 and 80% confluency at a cell density of 0.1 to 0.6×10^6 cells/mL. Cells were harvested at 600×g and resuspended at 0.65×10^6 cells/mL into appropriate media+10% FCS. An aliquot of 22.5 μL of cells was added to a well of a 384-well microtiter plate containing 2.5 μL of a 10% DMSO in RPMI-1640 media solution containing 0.16 to 100 μM of (2-chloro-quinazolin-4-yl)-(4-methoxy-phenyl)-methyl-amine or other test compound (0.016 to 10 μM final). An aliquot of 22.5 μL of cells was added to a well of a 384-well microtiter plate containing 2.5 μL of a 10% DMSO in RPMI-1640 media solution without test compound as the control sample. […] […] The samples were mixed by agitation and incubated at room temperature. Using a fluorescent plate reader (Model SPECTRAfluor Plus, Tecan), an initial reading (T=0) was made approximately 1-2 min after addition of the substrate solution, employing excitation at 485 nm and emission at 530 nm, to determine the background fluorescence of the control sample. After the 3 h incubation, the samples were read for fluorescence as above (T=3 h).
The Relative Fluorescence Unit values (RFU) were used to calculate the sample readings as follows: RFU(T=3h)−Control RFU(T=0)=Net RFU(T=3h)
The activity of caspase cascade activation was determined by the ratio of the net RFU value for (2-chloro-quinazolin-4-yl)-(4-methoxy-phenyl)-methyl-amine or other test compounds to that of control samples. The EC50 (nM) was determined by a sigmoidal dose-response calculation (Prism 3.0, GraphPad Software Inc.).

| EC50 [nM] | SMILES |
| --- | --- |
| 29 | CNc1nc(N(C)c2ccc(N(C)C)cc2)c2ccccc2n1 [Example 47, (2-Methylamino-quinazolin-4-yl)-(4-dimethylaminophenyl)-methylamine] |

Same assay, conditions: T-47D (24 hr)

| SMILES | Caspase activity Ratio (net RFU of test compound to control) |
| --- | --- |
| Cc1ccc(N(C)c2nc(Cl)nc3ccccc23)cc1 [Example 2, (2-Chloro-quinazolin-4-yl)-(4-methyl-phenyl)-methyl-amine] | 6.7 |
| CN(c1ccc(Cl)cc1)c1nc(Cl)nc2ccccc12 [Example 3, (2-Chloro-quinazolin-4-yl)-(4-chloro-phenyl)-methyl-amine] | 8.1 |
| CN(c1ccc(OC(F)(F)F)cc1)c1nc(Cl)nc2ccccc12 [Example 4, (2-Chloro-quinazolin-4-yl)-(4-trifluoromethoxy-phenyl)-methyl-amine] | 10.3 |
| COc1ccc(N(C)c2nc(N3CCOCC3)nc3ccccc23)cc1 [Example 6, (4-Methoxy-phenyl)-methyl-(2-morpholin-4-yl-quinazolin-4-yl)-amine] | 5.7 |
| COc1ccc(N(C)c2nc(Cl)nc3ccccc23)cn1 [Example 7, (2-Chloro-quinazolin-4-yl)-(6-methoxy-pyridin-3-yl)-methyl-amine] | 6.7 |
| COc1ccc(N(C)c2nc(CCl)nc3ccccc23)cc1 [Example 22, (2-Chloromethyl-quinazolin-4-yl)-(4-methoxy-phenyl)-methyl-amine] | 6.2 |
| COc1cccc(N(C)c2nc(Cl)nc3ccccc23)c1OC [Example 24, (2-Chloro-quinazolin-4-yl)-(2,3-dimethoxy-phenyl)-methyl-amine] | 4.5 |
| Cc1nc(N(C)c2ccc(OC(F)F)cc2)c2ccccc2n1 [Example 25, (4-Difluoromethoxy-phenyl)-(2-methyl-quinazolin-4-yl)-methyl-amine] | 6.7 |
| COc1ccc(N(C)c2nc(C)nc3ccccc23)cc1F [Example 26, (3-Fluoro-4-methoxy-phenyl)-(2-methyl-quinazolin-4-yl)-methyl-amine] | 7.6 |
| Cc1nc(N(C)c2ccc(OC(C)C)cc2)c2ccccc2n1 [Example 27, (4-Isopropoxy-phenyl)-(2-methyl-quinazolin-4-yl)-methyl-amine] | 6.2 |
| CCc1ccc(N(C)c2nc(C)nc3ccccc23)cc1 [Example 28, (4-Ethyl-phenyl)-(2-methyl-quinazolin-4-yl)-methyl-amine] | 6.3 |
| COc1ccc(N(C)c2nc(Cl)nc3cccc(Cl)c23)cc1 [Example 30, (2,5-Dichloro-quinazolin-4-yl)-(4-methoxy-phenyl)-methyl-amine] | 10.6 |
| COc1ccc(N(C)c2nc(C)nc3cccc(OC)c23)cc1 [Example 31, (5-Methoxy-2-methyl-quinazolin-4-yl)-(4-methoxy-phenyl)-methyl-amine] | 8.3 |
| COc1ccc(N(C)c2nc(C)nc3ccccc23)c(F)c1 [Example 34, (2-Fluoro-4-methoxy-phenyl)-(2-methyl-quinazolin-4-yl)-methyl-amine] | 6.9 |
| CCOc1ccc(N(C)c2nc(C)nc3ccccc23)cc1 [Example 36, (4-Ethoxy-phenyl)-(2-methyl-quinazolin-4-yl)-methyl-amine] | 5.2 |
| COc1ccc(N(C)c2nc(SC)nc3ccccc23)cc1 [Example 37, (2-Methylthio-quinazolin-4-yl)-(4-methoxy-phenyl)-methyl-amine] | 5.2 |
| COc1ccc(N(C)c2nc(N(C)C)nc3ccccc23)cc1 [Example 38, (2-Dimethylamino-quinazolin-4-yl)-(4-methoxy-phenyl)-methyl-amine] | 8.2 |
| COc1ccc(N(C)c2nc(C)nc3ccccc23)nc1 [Example 41, (5-Methoxy-pyridin-2-yl)-(2-methyl-quinazolin-4-yl)-methyl-amine] | 5.0 |
| COc1ccc(N(C)c2nc(NCc3ccccc3)nc3ccccc23)cc1 [Example 42, (2-Benzylamino-quinazolin-4-yl)-(4-methoxyphenyl)-methylamine] | 8.2 |
| Cc1nc(N(C)c2ccc(N(C)C)cc2)c2cc([N+](=O)[O-])ccc2n1 [Example 44, (2-Methyl-6-nitroquinazolin-4-yl)-(4-dimethylaminophenyl)-methylamine] | 2.6 |
| CN(C)c1ccc(N(C)c2nc(Cl)nc3ccccc23)cc1 [Example 45, (2-Chloro-quinazolin-4-yl)-(4-dimethylaminophenyl)-methylamine] | 4.2 |
| COc1ccc(N(C)c2nc(N(C)C)nc3ccc([N+](=O)[O-])cc23)cc1 [Example 46, (2-Dimethylamino-6-nitroquinazolin-4-yl)-(4-methoxyphenyl)-methylamine] | 4.2 |
| CNc1nc(N(C)c2ccc(N(C)C)cc2)c2ccccc2n1 [Example 47, (2-Methylamino-quinazolin-4-yl)-(4-dimethylaminophenyl)-methylamine] | 3.9 |
| CC(=O)N(C)c1nc(N(C)c2ccc(N(C)C)cc2)c2ccccc2n1 [Example 48, [2-(N-Methyl-acetamido)-quinazolin-4-yl]-(4-dimethylaminophenyl)-methylamine] | 2.4 |
| CSc1ccc(N(C)c2nc(C)nc3ccccc23)cc1 [Example 49, (4-Methylthio-phenyl)-(2-methyl-quinazolin-4-yl)-methylamine] | 7.5 |

Same assay, conditions: T-47D (48 hr)

| SMILES | Caspase activity Ratio (net RFU of test compound to control) |
| --- | --- |
| COc1ccc(N(C)c2nc(NO)nc3ccccc23)cc1 [Example 5, N^2-Hydroxyl-N^4-(4-methoxy-phenyl)-N^4-methyl-quinazoline-2,4-diamine] | 12.8 |
| COc1ccc(N(C)c2nc(N3CCOCC3)nc3ccccc23)cc1 [Example 6, (4-Methoxy-phenyl)-methyl-(2-morpholin-4-yl-quinazolin-4-yl)-amine] | 11.5 |
| CCN(c1ccc(OC)cc1)c1nc(Cl)nc2ccccc12 [Example 8, (2-Chloro-quinazolin-4-yl)-ethyl-(4-methoxy-phenyl)-amine] | 6.1 |
| COc1ccc(N(C)c2nc(Cl)nc3ccccc23)c(OC)c1 [Example 9, (2-Chloro-quinazolin-4-yl)-(2,4-dimethoxy-phenyl)-methyl-amine] | 12.4 |
| COc1cccc(N(C)c2nc(Cl)nc3ccccc23)c1 [Example 10, (2-Chloro-quinazolin-4-yl)-(3-methoxy-phenyl)-methyl-amine] | 14.7 |
| COc1ccc(N(C)c2nc(CF)nc3ccccc23)cc1 [Example 12, (2-Fluoromethyl-quinazolin-4-yl)-(4-methoxy-phenyl)-methyl-amine] | 9.0 |
| COc1ccc(N(C)c2nc(Cl)nc3ccc(C)cc23)cc1 [Example 13, (2-Chloro-6-methyl-quinazolin-4-yl)-(4-methoxy-phenyl)-methyl-amine] | 4.9 |
| COc1ccc(N(C)c2nc(Cl)nc3cccc(C)c23)cc1 [Example 14, (2-Chloro-5-methyl-quinazolin-4-yl)-(4-methoxy-phenyl)-methyl-amine] | 10.8 |
| COc1ccc(N(C)c2nc(Cl)nc3c(C)cccc23)cc1 [Example 15, (2-Chloro-8-methyl-quinazolin-4-yl)-(4-methoxy-phenyl)-methyl-amine] | 7.1 |
| COc1ccc(N(C)c2nc(Cl)nc3ccc(Cl)cc23)cc1 [Example 16, (2,6-Dichloro-quinazolin-4-yl)-(4-methoxy-phenyl)-methyl-amine] | 6.5 |
| CN(c1ccc2c(c1)OCO2)c1nc(Cl)nc2ccccc12 [Example 18, (2-Chloro-quinazolin-4-yl)-(3,4-methylenedioxyphenyl)-methyl-amine] | 12.5 |
| COc1ccc(N(C)c2nc(Cl)nc3ccccc23)cc1OC [Example 19, (2-Chloro-quinazolin-4-yl)-(3,4-dimethoxy-phenyl)-methyl-amine] | 13.1 |
| CCCOc1ccc(N(C)c2nc(Cl)nc3ccccc23)cc1 [Example 20, (2-Chloro-quinazolin-4-yl)-(4-propoxy-phenyl)-methyl-amine] | 11.3 |
| COc1ccc(N(C)c2nc(CCl)nc3ccccc23)cc1 [Example 22, (2-Chloromethyl-quinazolin-4-yl)-(4-methoxy-phenyl)-methyl-amine] | 5.7 |
| COc1ccc(N(C)c2nc(Cl)nc3c(Cl)cccc23)cc1 [Example 29, (2,8-Dichloro-quinazolin-4-yl)-(4-methoxy-phenyl)-methyl-amine] | 7.8 |
| CCOc1ccc(N(C)c2nc(Cl)nc3ccccc23)cc1 [Example 32, (2-Chloro-quinazolin-4-yl)-(4-ethoxy-phenyl)-methylamine] | 9.0 |
